Source: US8557800B2, “Sphingosine kinase inhibitors” (Apogee Biotechnology Corporation, priority 2005, dated 2013)

How the values were obtained:
recombinant human SK = test: Inhibition of recombinant human SK, LC/MS/MS assay; format: biochemical; settings: 6 μg/ml compound
In short: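 Enzyme incubated with unlabeled sphingosine and ATP (1 mM, as in the radiometric format) for 30 min, then stopped and extracted with acetonitrile. S1P quantified by C8 reverse-phase HPLC–MS/MS against C17 sphingosine and C17 S1P internal standards using calibration curves.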

[1] = tested on: MCF-10A non-transformed human breast epithelial cells; test: Cytotoxicity, SRB binding assay; format: cell-based; settings: inhibition of cell proliferation, 48 h, read-out: MCF-10A IC50
In short: (§1)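 Cells exposed to varying compound doses for 48 h, then survival measured by sulforhodamine B staining. IC50 is the concentration giving 50% proliferation inhibition, in μM, as mean±sd of replicate trials.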

[2] = tested on: MCF-7 human breast adenocarcinoma cells; test: Cytotoxicity, SRB binding assay; format: cell-based; settings: MCF7, inhibition of cell proliferation, 48 h, read-out: MCF-7 IC50
In short: as §1

Row | SMILES | Recombinant SK (% inhibition) (recombinant human SK) [%] | IC50 [1] [µM] | IC50 [2] [µM]
1 | O=C(NCc1ccccc1)C12CC3CC(C1)CC(c1ccc(Cl)cc1)(C3)C2 [Compound 12, 3-(4-Chloro-phenyl)-adamantane-1-carboxylic acid benzylamide] | 36 | 99 | 11
2 | CC(C)(C)c1ccc(CNC(=O)C23CC4CC(C2)CC(c2ccc(Cl)cc2)(C4)C3)cc1 [Compound 13, 3-(4-Chloro-phenyl)-adamantane-1-carboxylic acid 4-tert-butyl-benzylamide] | 78 | 115 | 51
3 | CC(NC(=O)C12CC3CC(C1)CC(c1ccc(Cl)cc1)(C3)C2)c1ccc(Br)cc1 (stereo not drawn) [Compound 29, 3-(4-Chloro-phenyl)-adamantane-1-carboxylic acid [1-(4-bromo-phenyl)-ethyl]-amide] | 55 | 106 | 7
4 | O=C(NCCc1ccccc1)C12CC3CC(C1)CC(c1ccc(Cl)cc1)(C3)C2 [Compound 37, 3-(4-Chloro-phenyl)-adamantane-1-carboxylic acid phenethyl-amide] | 24 | 127 | 5
5 | O=C(NCCc1ccc(F)cc1)C12CC3CC(C1)CC(c1ccc(Cl)cc1)(C3)C2 [Compound 38, 3-(4-Chloro-phenyl)-adamantane-1-carboxylic acid [2-(4-fluoro-phenyl)-ethyl]-amide] | 40 | 40 | 9
6 | O=C(NCCc1ccc(Br)cc1)C12CC3CC(C1)CC(c1ccc(Cl)cc1)(C3)C2 [Compound 39, 3-(4-Chloro-phenyl)-adamantane-1-carboxylic acid [2-(4-bromo-phenyl)-ethyl]-amide] | 19 | 106 | 15
7 | O=C(NCCc1ccc(O)cc1)C12CC3CC(C1)CC(c1ccc(Cl)cc1)(C3)C2 [Compound 40, 3-(4-Chloro-phenyl)-adamantane-1-carboxylic acid [2-(4-hydroxy-phenyl)-ethyl]-amide] | 100 | 37 | 6
8 | CN1CCN(NC(=O)C23CC4CC(C2)CC(c2ccc(Cl)cc2)(C4)C3)CC1 [Compound 52, 3-(4-Chloro-phenyl)-adamantane-1-carboxylic acid (4-methyl-piperazin-1-yl)-amide] | 54 | 15 | 10
9 | O=C(NCCN1CCOCC1)C12CC3CC(C1)CC(c1ccc(Cl)cc1)(C3)C2 [Compound 58, 3-(4-Chloro-phenyl)-adamantane-1-carboxylic acid (2-morpholin-4-yl-ethyl)-amide] | 67 | 36 | 20
10 | O=C(NCCc1ccncc1)C12CC3CC(C1)CC(c1ccc(Cl)cc1)(C3)C2 [Compound 64, 3-(4-Chloro-phenyl)-adamantane-1-carboxylic acid (2-pyridin-4-yl-ethyl)-amide] | 41 | 20 | 8
11 | Cc1cc2cc(NC(=O)C34CC5CC(C3)CC(c3ccc(Cl)cc3)(C5)C4)ccc2[nH]1 [Compound 66, 3-(4-Chloro-phenyl)-adamantane-1-carboxylic acid (2-methyl-1H-indol-5-yl)-amide] | 92 | 53 | 19
12 | CCn1c2ccccc2c2cc(NC(=O)C34CC5CC(C3)CC(c3ccc(Cl)cc3)(C5)C4)ccc21 [Compound 68, 3-(4-Chloro-phenyl)-adamantane-1-carboxylic acid (9-ethyl-9H-carbazol-3-yl)-amide] | 17 | 104 | 54
13 | O=C(Nc1nc(-c2ccc(Cl)cc2)cs1)C12CC3CC(CC(C3)C1)C2 [Compound 69, Adamantane-1-carboxylic acid [4-(4-chloro-phenyl)-thiazol-2-yl]-amide] | 40 | 106 | 30
